Reference: patent US20210106582A1, “COMPOUNDS AND PHARMACEUTICAL COMPOSITIONS THEREOF FOR USE IN THE TREATMENT OF FIBROTIC DISEASES” (Galapagos NV, priority 2017, published 2021)
Values joined by “and” are separate entries in the source; they are usually repeats but may differ in a detail not shown here. Equal values may be shown once.

How the values were obtained:
Assay type in all cases: in vivo
[1] = test system: male C57BL/6 mice fed CDAHF diet; experiment: CDAHFD model (choline-deficient, L-amino acid-defined, high-fat diet); settings: individual animals, CDAHFD 10W, 30 mg/kg q.d. p.o.
[2] = test system: female C57BL/6J mice, lung fibrosis induced by radiation; experiment: Radiation induced fibrosis mice model; settings: individual animals, irradiated lung, CpdA 30 mg/kg QD PO D1-D14
Protocol: Pneumonitis and lung fibrosis are the major radiation-induced complications following thoracic radiotherapy, which is one of the major treatment of lung and breast cancers, lymphomas and hematopoietic transplant conditioning.
The objective of this model is to evaluate the effect of a compound of the invention in lung fibrosis induced by radiation in mice. (Bickelhaupt et al., 2017)
7 weeks old (18/22 gr) female C57BL/6J mice from Charles River (France) are maintained on 12 h light/dark cycle at 22° C. with ad libidum access to tap water and food.
The test compounds are dissolved/suspended in appropriate vehicle prior to using and then kept light-free, under agitation at room temperature.
The dose volume administered is 10 mL/kg and the volume is adapted following mean body weight (BW) of the group as follows: 200 μL if mean BW<22.5 g, 250 μL if mean BW≥22.5 g; 300 μL if mean BW>27.5 g.
On day 1 of week 1, the animals are exposed at the thorax to a 17 Gray irradiation dose, under isoflurane anesthesia. […]
Body weight are recorded once a week, and on Day 14, lung function measurement under anesthesia is realized by Flexivent (Devos et al., 2017) for all groups before sacrifice.
At sacrifice on Day 14, the lungs are collected and fixed in 4% formaldehyde for 24 h before embedding in paraffin. […] The anti-collagen I antibody is detected and amplified by ImmPress kit (Vector Laboratories, Cat. No: MP-7401). The immunostained sections are then scanned (Nanozoomer 2.0HT, Hamamatsu) before quantification by image analysis (CaloPix software, TRIBVN Healthcare). Data are expressed as percentage collagen I area per area of lung tissue.
Values for all mice from the same group are averaged. Data are expressed as mean±sem and are compared with a one-way ANOVA followed by Dunnett multiple comparison post hoc test. […]
Manganese superoxide dismutase (MnSOD), located in mitochondria, catalyzes the conversion of superoxide into H2O2, and is a marker of antioxidant response induced by oxidative stress. MnSOD expression is measured immunohistochemically following a protocol adapted from Inghilleri et al. (Inghilleri et al., 2006).
At sacrifice on Day 14, the lungs are collected and fixed in 4% formaldehyde for 24 h before embedding in paraffin. […] The anti-MnSOD antibody is detected by an anti-rabbit biotinylated antibody (Vector Laboratories, Cat. No: BA-1100) amplified by avidin-biotin peroxidase (Vector Laboratories, Cat. No: PK-6100). […] The immunostained sections counterstained with Gill's hematoxylin are then scanned (Nanozoomer 2.0HT, Hamamatsu) before quantification by image analysis (CaloPix software, TRIBVN Healthcare). Data are expressed as percentage MnSOD stained area per area of lung tissue.

[3] = test system: male C57BL/6 mice fed a Methionine and Choline-deficient (MCD) diet; experiment: MCD model (methionine and choline deficient diet, NASH); settings: individual animals, 30 mg/kg q.d. p.o., MCD diet 8 wk
Protocol: The methionine and choline deficient (MCD) diet model is used to produce a severe phenotype of NASH in […] (Santhekadur et al., 2017), and is used to evaluate the compounds of the invention.
At induction, 8 weeks-old male C57BL/6 mice (Janvier Labs, France) maintained at 22° C.±2° C. and humidity at 55%±10%, with a 12-hrs dark/light cycle are fed a standard diet (chow (A04C-10, Safe, France) or a Methionine and Choline-deficient (MCD) diet (EFTD.90262, Ssniff, Soest, Germany) for 8 weeks. All animals have access to filtered tap drinking water.
Four weeks after the induction, the animals are either assigned to a control-group or a test-group.
Test group animals are dosed with the a test compound, i.e. Compound A (CpdA) or Compound B (CpdB), at 30 mg/kg, q.d., p.o. formulated in methylcellulose 0.5%, 1 equivalent HCl. The control groups receives a similar volume of vehicle (10 mL/kg), i.e. the standard diet for control group 1 (C1) and the MCD diet for control group 2 (C2). Mice are randomly assigned to a treatment group according to their body weight in order to ensure a homogenous reparation.
After sacrifice (week 8), the activity of the test compound on the development of NASH is assessed by plasma ALT and AST levels and in liver by histopathological examination of fibrosis and steatosis (Sirius red, Oil Red O), collagen (OH-Pro) and triglycerides content and expression of fibrotic and inflammatory genes.
In addition, the NAS score is determined to further evaluate the compounds with respect to their effect on diet induced NASH. The nonalcoholic fatty liver disease activity scoring (NAS) has been proposed and accepted as a tool to measure changes in NAFLD during therapeutic trials (Brunt et al., 2011; Kleiner et al., 2005).
The NAS score (0-8) is defined as the sum of the steatosis score (0-3), lobular inflammation score (0-3), ballooning score (0-2). A NAS score of ≥5 is indicative of a NASH diagnostic.

## O=c1nc(OC[C@@H]2COCCO2)cc2n1CCc1cc(C#CC3CC3)ccc1-2 [Compound A, 9-Cyclopropylethynyl-2-((S)-1-[1,4]dioxan-2-ylmethoxy)-6,7-dihydro-pyrimido[6,1-a]isoquinolin-4-one]
[1]; Fig 12 panel A
  Col1a1 expression profiles (NRQ-scaled versus Disease-Vehicle): 1.76 and 0.36 and 0.49 and 0.35 and 0.43 and 0.38 and 0.10 and 0.18 and 0.12 and 0.26
[1]; Figure 12 panel B
  TNFα expression profiles (NRQ-scaled versus Disease-Vehicle): 0.53 (2×) and 0.89 and 0.77 and 0.46 and 0.67 and 0.80 and 0.64 and 0.97 and 0.59
[1]; liver, Figure 11
  Fibrosis (Sirius red area %): 0.53% (2×) and 0.89% and 0.77% and 0.46% and 0.67% and 0.80% and 0.64% and 0.97% and 0.59%
[2]; Figure 15
  Type I collagen stained area fraction: 16.2% and 14.7% and 11.0% and 13.0% and 8.7% and 8.1% and 6.5% and 8.9% and 9.1% and 8.6%
[2]; Figure 16
  MnSOD stained area fraction: 0.31% and 0.74% and 0.39% and 0.57% (3×) and 0.71% and 0.66% and 0.99% and 0.26%
[3]; NRQ scaled versus disease, Fig 8 Panel B
  TIMP1 NRQ gene expression: 1.0 and 1.1 and 0.4 (3×) and 0.8 and 0.9 and 0.1 and 0.5 and 2.3
[3]; dosing from week 4, Normalised Relative Quantity scaled versus disease, FIG. 8 Panel A
  Col1a NRQ gene expression: 0.3 and 0.8 (2×) and 1.0 and 0.5 and 0.1 and 0.4 and 2.1 and 0.6 and 2.4
[3]; liver, NRQ scaled versus disease, Fig 9 Panel A
  TNfα NRQ gene expression: 0.8 (3×) and 1.4 and 1.0 and 0.7 and 0.5 and 0.1 and 1.5 and 0.4
[3]; liver, NRQ scaled versus disease, Fig 9 Panel B
  CC12 NRQ gene expression: 0.5 (4×) and 1.2 and 0.6 (2×) and 0.7 and 0.2 and 1.0
[3]; total NAS score (0-8), Fig 10
  NAS scoring data: 7.0 (4×) and 6.0 (4×) and 5.0 and 8.0
